The values below come from patent publication US9656971B2, “COMT inhibitors” (Hoffmann-La Roche Inc., priority 2012, dated 2017).

Structures are written as SMILES. Like-named read-outs stand apart in the source and are kept apart here.

The target of the experiment is T1, Rec. human COMT (Homo sapiens, UniProt P21964).
T1 sequence (P21964 1-271): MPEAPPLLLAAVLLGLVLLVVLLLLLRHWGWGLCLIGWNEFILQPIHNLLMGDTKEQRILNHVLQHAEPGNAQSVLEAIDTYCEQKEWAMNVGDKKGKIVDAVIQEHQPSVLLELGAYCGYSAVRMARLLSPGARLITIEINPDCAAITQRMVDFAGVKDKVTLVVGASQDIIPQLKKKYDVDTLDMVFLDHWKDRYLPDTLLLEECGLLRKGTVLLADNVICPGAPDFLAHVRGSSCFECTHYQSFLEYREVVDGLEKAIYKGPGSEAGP
Nature of the experiment: COMT-Fluorescence Assay. The experiment is classed as biochemical. The settings on record: rec. human COMT 25 nM, 4-Nitrocatechol-Alexa488 200 nM, SAM 500 nM. The method, then: This intramolecular interaction is disturbed if the 4-Nitrocatechol is methylated. […] This increase of fluorescence intensity can be followed in a kinetic measurement. The slope in the linear range of the kinetic is calculated. An inhibitor compound decreases the slope.
Signal [rfu/min]=(rfu(end-point)−rfu(startpoint))/incubation_time_#2

The mark [1] stands for this setting: COMT-fluorescence assay, read-out: IC50.

As to `O=C(Nc1c(-c2ccc(F)cc2)cc(O)c2nc[nH]c(=O)c12)c1ccccc1` [Example 254, N-(6-(4-Fluorophenyl)-8-hydroxy-4-oxo-3,4-dihydroquinazolin-5-yl)benzamide], the half-inhibitory concentration (IC50) under setting [1] was 1400 nM.

In the case of `CN(C)c1ccccc1-c1cc(O)c2nc[nH]c(=O)c2c1` [Example 209, 6-(2-(Dimethylamino)phenyl)-8-hydroxyquinazolin-4(3H)-one], the IC50 under setting [1] turned out to be 370 nM.

As to `CN1CCN(C(=O)c2cccc(-c3cc(O)c4nc[nH]c(=O)c4c3)c2)CC1` [Example 191, 8-Hydroxy-6-[3-(4-methyl-piperazine-1-carbonyl)-phenyl]-3H-quinazolin-4-one], under setting [1], the half-maximal inhibitory concentration (IC50) amounted to 30 nM.

As for `Cc1nnc(-c2cc(O)c3nc[nH]c(=O)c3c2)s1` [Example 83, 8-Hydroxy-6-(5-methyl-1,3,4-thiadiazol-2-yl)quinazolin-4(3H)-one], the IC50 under setting [1] turned out to be 60 nM.

As for `O=c1[nH]cnc2c(O)cc(-c3ccc4ccccc4c3)cc12` [Example 169, 8-Hydroxy-6-(naphthalen-2-yl)quinazolin-4(3H)-one], under setting [1], the IC50 came out at 40 nM.

`O=c1[nH]cnc2c(O)ccc(-c3ccc(F)cc3)c12` [Example 151, 5-(4-Fluorophenyl)-8-hydroxyquinazolin-4(3H)-one]: under setting [1], the IC50 turned out to be 160 nM.

`CN(C)CCc1cccc(-c2cc(O)c3nc[nH]c(=O)c3c2)c1` [Example 247, 6-(3-(2-(Dimethylamino)ethyl)phenyl)-8-hydroxyquinazolin-4(3H)-one] registered a half-maximal inhibitory concentration (IC50) (IC50, COMT-fluorescence assay) of 50 nM.

On to `O=c1[nH]cnc2c(O)cc(-c3ccccc3COCCN3CCCC3)cc12` [Example 238, 8-Hydroxy-6-(2-((2-(pyrrolidin-1-yl)ethoxy)methyl)phenyl)quinazolin-4(3H)-one], for which, under setting [1], the IC50 was 30 nM.

In the case of `CN(C)c1ccc(/N=N/c2ccccc2)c(-c2cc(O)c3nc[nH]c(=O)c3c2)c1` [Example 29, (E)-6-(5-(Dimethylamino)-2-(phenyldiazenyl)phenyl)-8-hydroxyquinazolin-4(3H)-one], the IC50 under setting [1] worked out at 2800 nM.

Regarding `O=c1[nH]cnc2c(O)c(F)c(-c3ccccc3)c(F)c12` [Example 38, 5,7-Difluoro-8-hydroxy-6-phenylquinazolin-4(3H)-one], under setting [1], the IC50 stood at 30 nM.

Turning to `CS(=O)(=O)c1cccc(-c2c(-c3ccc(F)cc3)cc(O)c3nc[nH]c(=O)c23)c1` [Example 52, 6-(4-Fluorophenyl)-8-hydroxy-5-(3-(methylsulfonyl)phenyl)quinazolin-4(3H)-one], the IC50 under setting [1] turned out to be 10 nM.

`CSc1ccccc1-c1cc(O)c2nc[nH]c(=O)c2c1` [Example 223, 8-Hydroxy-6-(2-(methylthio)phenyl)quinazolin-4(3H)-one]: the IC50 under setting [1] was found to be 20 nM.

As for `CS(=O)(=O)CCc1ccccc1-c1cc(O)c2nc[nH]c(=O)c2c1` [Example 116, 8-Hydroxy-6-(2-(2-(methylsulfonyl)ethyl)phenyl)quinazolin-4(3H)-one 2,2,2-trifluoroacetate], the 50% inhibitory concentration (IC50) under setting [1] stood at 180 nM.

Turning to `O=c1[nH]cnc2c(O)cc(-c3ccccc3CCCN3CCCC3)cc12` [Example 242, 8-Hydroxy-6-(2-(3-(pyrrolidin-1-yl)propyl)phenyl)quinazolin-4(3H)-one], under setting [1], the IC50 came out at 220 nM.

For the molecule `O=c1[nH]cnc2c(O)cc(N3CCOCC3)cc12` [Example 187, 8-Hydroxy-6-morpholinoquinazolin-4(3H)-one], the IC50 under setting [1] was 710 nM.

For the molecule `O=C(c1cccc(-c2cc(O)c3nc[nH]c(=O)c3c2)c1)N1CCS(=O)(=O)CC1` [Example 192, 6-[3-(1,1-Dioxo-1λ^6-thiomorpholine-4-carbonyl)-phenyl]-8-hydroxy-3H-quinazolin-4-one], under setting [1], the IC50 was 20 nM.

`Cc1ccccc1-c1cc(O)c2nc[nH]c(=O)c2c1` [Example 210, 8-Hydroxy-6-o-tolylquinazolin-4(3H)-one]: the IC50 under setting [1] came out at 30 nM.

As to `COCc1nc(C)sc1-c1cc(O)c2nc[nH]c(=O)c2c1` [Example 46, 8-Hydroxy-6-(4-(methoxymethyl)-2-methylthiazol-5-yl)quinazolin-4(3H)-one], under setting [1], the half-inhibitory concentration (IC50) came to 10 nM.

By IC50 is commonly meant the midpoint of a concentration-inhibition curve.
